# Results as given in ChEMBL document CHEMBL1123322, “Muscarinic ganglionic stimulants: conformationally restrained analogues related to [4-[[N-(3-chlorophenyl)carbamoyl]oxy]-2-butynyl]trimethylammonium chloride” (1986).
# Activity calls are given as the source filed them. The rule behind the calls is not given here.
# Tests used:
# Assay type in all cases: functional
# Rattus norvegicus [1] = species on record: Rattus norvegicus; assay: Compound was tested for the production of depressor effects in rat
# [2] = molecular target: T1, Muscarinic acetylcholine receptor M1 (Rattus norvegicus) (UniProt P08482); assay: Muscarinic M1 receptor ganglion-stimulating activity as pressor responses in pithed rats; Inactive
# T1 sequence (whole entry): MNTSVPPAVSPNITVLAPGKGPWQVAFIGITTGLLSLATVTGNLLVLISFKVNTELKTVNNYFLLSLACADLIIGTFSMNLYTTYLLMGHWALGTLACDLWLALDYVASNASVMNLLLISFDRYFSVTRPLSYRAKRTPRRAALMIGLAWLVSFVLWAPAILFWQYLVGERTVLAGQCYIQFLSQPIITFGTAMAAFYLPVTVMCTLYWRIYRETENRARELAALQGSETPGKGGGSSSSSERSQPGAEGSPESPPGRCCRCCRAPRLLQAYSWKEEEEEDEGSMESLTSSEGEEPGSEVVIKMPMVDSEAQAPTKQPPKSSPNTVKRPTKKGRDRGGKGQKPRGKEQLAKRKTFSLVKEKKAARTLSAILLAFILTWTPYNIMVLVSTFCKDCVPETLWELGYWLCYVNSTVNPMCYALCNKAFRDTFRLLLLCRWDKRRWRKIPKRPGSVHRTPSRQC
# Rattus norvegicus [3] = species on record: Rattus norvegicus; assay: Compound was tested for the production of piperizine sensitive pressor response
# Rattus norvegicus [4] = species on record: Rattus norvegicus; assay: Compound was tested for the production of […] sensitive pressor response; Range 20-30 mmHg
Activity [2],SMILES,Activity (Rattus norvegicus [1]),Activity (Rattus norvegicus [3]),Mean arterial blood pressure (Rattus norvegicus [4])
inactive,CN1CCC=C(COC(=O)Nc2ccc(Cl)cc2)C1,>2 µM/kg,,
,C[N+]1(C)CC=C(COC(=O)Nc2ccc(Cl)cc2)CC1.[Br-],,0.1 µM/kg,
inactive,CN1CC=C(COC(=O)Nc2ccc(Cl)cc2)CC1,>2 µM/kg,,
,CN1CCC(COC(=O)Nc2cccc(Cl)c2)CC1,0.1 µM/kg,,
,C[N+]1(C)CCC(COC(=O)Nc2cccc(Cl)c2)CC1,,,20 mmHg
,C[N+]1(C)CCC=C(COC(=O)Nc2ccc(Cl)cc2)C1.[I-],0.1 µM/kg,,
inactive,CN1CCC=C(COC(=O)Nc2ccccc2Cl)C1,>2 µM/kg,,
inactive,C[N+]1(C)CC=C(COC(=O)Nc2cccc(Cl)c2)CC1.Cc1ccc(S(=O)(=O)[O-])cc1,>2 µM/kg,0.1 µM/kg,
inactive,CN1CC=C(COC(=O)Nc2cccc(Cl)c2)CC1,>2 µM/kg,,
,C[N+]1(C)CC=C(COC(=O)Nc2cccc(Cl)c2)C1,3 µM/kg,,
,CN1CC=C(COC(=O)Nc2cccc(Cl)c2)C1,,,20 mmHg
inactive,Cc1cccc(NC(=O)OCC2=CCN(C)CC2)c1,>2 µM/kg,,
inactive,Cc1cccc(NC(=O)OCC2C=CCN(C)C2)c1 (stereo not given),>2 µM/kg,,
inactive,C[N+]1(C)CCC=C(COC(=O)Nc2cccc(Cl)c2)C1.[I-],>2 µM/kg,,
inactive,CN1CCC=C(COC(=O)Nc2cccc(Cl)c2)C1,>2 µM/kg,,
